{"source": "ChEMBL document CHEMBL2440025", "about": "“Bacterial neuraminidase inhibitory effects of prenylated isoflavones from roots of Flemingia philippinensis” (Bioorg Med Chem, 2013)", "key": {"Sialidase [1]": {"molecular_target": "T1, Sialidase (Clostridium perfringens, UniProt P10481)", "T1 sequence (P10481 whole entry)": "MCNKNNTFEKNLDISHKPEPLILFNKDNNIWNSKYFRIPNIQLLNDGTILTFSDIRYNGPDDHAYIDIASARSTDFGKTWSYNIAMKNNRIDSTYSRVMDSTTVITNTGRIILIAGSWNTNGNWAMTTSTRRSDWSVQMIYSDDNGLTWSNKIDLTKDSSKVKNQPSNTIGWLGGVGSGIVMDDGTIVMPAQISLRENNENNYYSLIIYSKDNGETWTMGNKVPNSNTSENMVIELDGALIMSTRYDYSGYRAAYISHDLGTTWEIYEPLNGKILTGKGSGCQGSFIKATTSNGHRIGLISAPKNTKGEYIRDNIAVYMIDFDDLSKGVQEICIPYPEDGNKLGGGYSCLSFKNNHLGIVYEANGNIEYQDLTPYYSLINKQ", "assay": "Non-competitive inhibition of Clostridium perfringens neuraminidase using 4-methylumbelliferyl-alpha-D-N-acetylneuraminic acid sodium salt hydrate as substrate by Dixon plot method"}, "[2]": {"molecular_target": "T2, Sialidase (Clostridium perfringens) (UniProt P10481)", "T2 sequence (whole entry)": "T1 sequence (P10481 whole entry)", "assay": "(§1) Inhibition of Clostridium perfringens neuraminidase using 4-methylumbelliferyl-alpha-D-N-acetylneuraminic acid sodium salt hydrate as substrate by fluorimetry"}, "Sialidase [3]": {"molecular_target": "T1, Sialidase", "assay": "as §1"}}, "data": [{"compound": "CC(C)=CCc1c(-c2coc3cc(O)cc(O)c3c2=O)cc2c(c1O)OC(C)(C)C=C2", "values": [{"measurement": "Ki", "setting": "Sialidase [1]", "result": 53, "unit": "µM"}, {"measurement": "inhibition", "setting": "[2]", "result": "Dose-dependent effect"}, {"measurement": "IC50", "setting": "Sialidase [3]", "result": 56.8, "unit": "µM"}]}, {"compound": "CC(C)=CCc1c2c(c(O)c3c(=O)c(-c4ccc(O)c(O)c4)coc13)C=CC(C)(C)O2", "note": "[AURICULASIN]", "values": [{"measurement": "Ki", "setting": "Sialidase [1]", "result": 0.13, "unit": "µM"}, {"measurement": "inhibition", "setting": "[2]", "result": "Dose-dependent effect"}, {"measurement": "IC50", "setting": "Sialidase [3]", "result": 0.3, "unit": "µM"}]}, {"compound": "CC(C)=CCc1c(O)c(CC=C(C)C)c2occ(-c3ccc(O)c(O)c3)c(=O)c2c1O", "values": [{"measurement": "Ki", "setting": "Sialidase [1]", "result": 1.02, "unit": "µM"}, {"measurement": "inhibition", "setting": "[2]", "result": "Dose-dependent effect"}, {"measurement": "IC50", "setting": "Sialidase [3]", "result": 1.07, "unit": "µM"}]}, {"compound": "C=CC(C)(C)C1=Cc2c(c(CC=C(C)C)c3occ(-c4ccc(O)cc4)c(=O)c3c2O)OC1(C)C", "values": [{"measurement": "Ki", "setting": "Sialidase [1]", "result": 7.27, "unit": "µM"}, {"measurement": "inhibition", "setting": "[2]", "result": "Dose-dependent effect"}, {"measurement": "IC50", "setting": "Sialidase [3]", "result": 7.9, "unit": "µM"}]}, {"compound": "CC(C)=CCc1c2c(c3occ(-c4ccc(O)cc4)c(=O)c3c1O)C=CC(C)(C)O2", "note": "[OSAJIN]", "values": [{"measurement": "Ki", "setting": "Sialidase [1]", "result": 3.21, "unit": "µM"}, {"measurement": "inhibition", "setting": "[2]", "result": "Dose-dependent effect"}, {"measurement": "IC50", "setting": "Sialidase [3]", "result": 3.06, "unit": "µM"}]}, {"compound": "C=CC(C)(C)C1=Cc2c(c(CC=C(C)C)c3occ(-c4ccc(O)c(O)c4)c(=O)c3c2O)OC1(C)C", "values": [{"measurement": "Ki", "setting": "Sialidase [1]", "result": 1.36, "unit": "µM"}, {"measurement": "inhibition", "setting": "[2]", "result": "Dose-dependent effect"}, {"measurement": "IC50", "setting": "Sialidase [3]", "result": 1.63, "unit": "µM"}]}, {"compound": "COc1cc(-c2coc3c(CC=C(C)C)c(O)c(CC=C(C)C)c(O)c3c2=O)ccc1O", "note": "[FLEMINGSIN]", "values": [{"measurement": "Ki", "setting": "Sialidase [1]", "result": 3.68, "unit": "µM"}, {"measurement": "inhibition", "setting": "[2]", "result": "Dose-dependent effect"}, {"measurement": "IC50", "setting": "Sialidase [3]", "result": 3.75, "unit": "µM"}]}, {"compound": "CC(C)=CCc1cc(-c2coc3cc(O)cc(O)c3c2=O)c(CC=C(C)C)c(O)c1O", "values": [{"measurement": "Ki", "setting": "Sialidase [1]", "result": 7.86, "unit": "µM"}, {"measurement": "inhibition", "setting": "[2]", "result": "Dose-dependent effect"}, {"measurement": "IC50", "setting": "Sialidase [3]", "result": 7.85, "unit": "µM"}]}, {"compound": "O=c1c(-c2ccc(O)cc2)coc2cc(O)cc(O)c12", "note": "[GENISTEIN]", "values": [{"measurement": "IC50", "setting": "Sialidase [3]", "result": 12, "unit": "µM"}]}, {"compound": "CC(C)=CCc1c(O)c(CC=C(C)C)c2occ(-c3ccc(O)cc3)c(=O)c2c1O", "values": [{"measurement": "Ki", "setting": "Sialidase [1]", "result": 4.29, "unit": "µM"}, {"measurement": "inhibition", "setting": "[2]", "result": "Dose-dependent effect"}, {"measurement": "IC50", "setting": "Sialidase [3]", "result": 4.04, "unit": "µM"}]}]}
